From patent US4361579A, “Organogermanium compounds” (Yoshitomi Pharmaceutical Industries, Ltd., priority 1979, dated 1982) come the findings set out here.

The subject of one data set is emigrating leukocytes. Briefly: Potentiating Activity for Leukocyte Migration (CMC pouch). In kind it is in vivo, rat (male Donryu). To be noted: 6 hours, vs control group. As for the experimental part:
The test was performed according to the method described by H. Ishikawa et al in "Yakugaku Zasshi (Journal of the Pharmaceutical Society of Japan)", vol. 88, 1472 (1968).
Male Donryu rats weighing about 150 g were divided into groups of 4 to 5 animals each. Five ml of 2% suspension of carboxymethylcellulose (CMC) in physiological saline was injected subcutaneously in the supra-scapular area. Compounds tested (0.4 ml/rat) were administered into the CMC pouch immediately after the injection of CMC suspension. Six hours later, 0.1 ml of fluid in the CMC pouch was collected and mixed with 6 ml of 0.05% brilliant cresyl blue solution in phosphate buffer (pH 7.2). The suspension was put in a Burker chamber and the emigrating leukocytes were counted under a microscope. The percent potentiation was calculated as compared with the count in the control group.

The test system of data set [1] is rosette forming cells (RFC) in thymus. Briefly: Activity for Antibody Production: rosette forming cells (RFC) in thymus after sensitization with sheep red blood cells. In kind it is in vivo, mouse (C57B1/6). To be noted: Control = 100, 7 days after sensitization. As for the experimental part: (§1) C57B1/6 mice (6 week old, 20 g) were sensitized by intraperitoneally administering sheep red blood cells of 5×10^8 /0.1 ml. Compounds tested were given orally on the same day and next day of the sensitization. Seven days after the sensitization, the number of plaque forming cells (PFC) in spleen and of rosette forming cells (RFC) in spleen and thymus were measured in a usual manner.

The subject of data set [2] is plaque forming cells (PFC) in spleen. Briefly: Activity for Antibody Production: plaque forming cells (PFC) in spleen after sensitization with sheep red blood cells. In kind it is in vivo, mouse (C57B1/6). The settings on record: Control = 100, 7 days after sensitization. As for the experimental part:
as §1

In data set [3] the test system is rosette forming cells (RFC) in spleen. Briefly: Activity for Antibody Production: rosette forming cells (RFC) in spleen after sensitization with sheep red blood cells. In kind it is in vivo, mouse (C57B1/6). To be noted: Control = 100, 7 days after sensitization. The protocol: as §1
A further data set relates to Adjuvant Arthritis. Put plainly: Prophylactic Effect on Adjuvant Arthritis (hind feet swelling). In kind it is in vivo, rat (Lewis male). The settings on record: day 1 to day 20, hind feet swelling at 28 days. As for the experimental part: The tails of Lewis male rats (250 g) were injected mycobacterium butyricum (0.5 mg/0.1 ml). Compounds tested were orally administered daily from the adjuvant inoculation day (day 1) to day 20. Swellings in the hind feet were measured at 28 days after the adjuvant inoculation.

In the next data set the test system is rat. Put plainly: Acute Toxicity (rat, per os). The settings on record: 2000 mg/kg. In kind it is in vivo. From the text: | Acute Toxicity (rat, per os)
[4] abbreviates: 3 mg/kg orally, *p < 0.05, **p < 0.01.
Setting [5] is: 30 mg/kg orally, *p < 0.05, **p < 0.01.

Consider “polycondensation product of p-(N-methyl-4-carboxybutyrylamino)phenylgermanium trihydrodie”, for which the “Potentiation (%)” value with emigrating leukocytes (10 mg/rat into the CMC pouch) was determined as 44%. Further, in data set [1] (setting [4]), the “RFC in Thymus” value was 141. Moreover, the “PFC in Spleen” value in data set [2] (3 mg/kg orally) is on record as 95. The “RFC in Spleen” value in data set [3] (3 mg/kg orally, *p < 0.05) is listed as 85.
Take “polycondensation product of p-(N-methyl-4-ethoxycarbonylbutyrylamino)phenylgermanium trihydroxide”: the “Potentiation (%)” value in the data set on emigrating leukocytes (20 mg/rat into the CMC pouch) is 56%.
As to “polycondensation product of p-(N-ethyl-3-ethoxycarbonylpropionylamino)phenylgermanium trihydroxide [Compound D]”, the “Potentiation (%)” value in the data set on emigrating leukocytes (5 mg/rat into the CMC pouch) was found to be 7%; with emigrating leukocytes (10 mg/rat into the CMC pouch), 33%; in the data set with emigrating leukocytes (20 mg/rat into the CMC pouch), 210%.
On to “polycondensation product of p-(N-ethyl-2-ethoxycarbonylacetylamino)phenylgermanium trihydroxide”, for which the entries for the “Potentiation (%)” value in the data set with emigrating leukocytes (0.25 mg/rat into the CMC pouch), with emigrating leukocytes (5 mg/rat into the CMC pouch) and in the data set on emigrating leukocytes (20 mg/rat into the CMC pouch) were 7%, 87% and 96%, respectively.
Consider “polycondensation product of p-(N-methyl-3-carboxypropionylamino)phenylgermanium trihydroxide”, for which the “Potentiation (%)” value in the data set with emigrating leukocytes (10 mg/rat into the CMC pouch) is on record as 26%; in the data set on emigrating leukocytes (20 mg/rat into the CMC pouch), 47%. For the same substance, the results for the “Inhibition (%)” value in the data set on Adjuvant Arthritis (25 mg/kg orally daily) and in the data set with Adjuvant Arthritis (100 mg/kg orally daily) were 35% and 53%, respectively. For the same substance, the “RFC in Thymus” value in data set [1] (setting [4]) came to 218. For the same substance, the “PFC in Spleen” value in data set [2] (3 mg/kg orally) was determined as 68. Further, the “RFC in Spleen” value in data set [3] (3 mg/kg orally, *p < 0.05) is recorded as 86.
In the case of “polycondensation product of p-(N-methyl-m-methylbenzoylamino)phenylgermanium trihydroxide”, the “Potentiation (%)” value came to 46% in the data set with emigrating leukocytes (10 mg/rat into the CMC pouch) and 55% in the data set with emigrating leukocytes (20 mg/rat into the CMC pouch).
In the case of “polycondensation product of p-(N-methyl-2-ethoxycarbonylacetylamino)phenylgermanium trihydroxide”, the “Potentiation (%)” value is 16% in the data set on emigrating leukocytes (10 mg/rat into the CMC pouch) and 91% in the data set with emigrating leukocytes (20 mg/rat into the CMC pouch). Besides, the “Inhibition (%)” value with Adjuvant Arthritis (10 mg/kg orally daily) stood at 22%; in the data set with Adjuvant Arthritis (25 mg/kg orally daily) it was 48%. The “RFC in Thymus” value in data set [1] (1 mg/kg orally, **p < 0.01) came out at 315; in data set [1] (setting [4]) it was 284; in data set [1] (setting [5]) it was 431. Moreover, the “PFC in Spleen” value in data set [2] (1 mg/kg orally) was determined as 110; in data set [2] (3 mg/kg orally) it was 125; in data set [2] (30 mg/kg orally, *p < 0.05), 175. Also, the “RFC in Spleen” value in data set [3] (1 mg/kg orally) is given as 157; in data set [3] (3 mg/kg orally, *p < 0.05), 346; in data set [3] (30 mg/kg orally, **p < 0.01), 703. Besides, the Mortality in the data set with rat is listed as 0/5.
On to “poly(carboxyethylgermanium sesquioxide) [Comparison, reference compound]”, for which, in the data set with emigrating leukocytes (20 mg/rat into the CMC pouch), the “Potentiation (%)” value was 13%. Besides, the “Inhibition (%)” value in the data set on Adjuvant Arthritis (25 mg/kg orally daily) is on record as -18%; in the data set with Adjuvant Arthritis (100 mg/kg orally daily) it was 15%. Also, the “RFC in Thymus” value in data set [1] (setting [5]) was found to be 168. In data set [2] (30 mg/kg orally, *p < 0.05), the “PFC in Spleen” value is listed as 100. Further, the “RFC in Spleen” value in data set [3] (30 mg/kg orally, **p < 0.01) was found to be 121.
In the case of “polycondensation product of p-(N-methyl-3-ethoxycarbonylpropionylamino)phenylgermanium trihydroxide”, the “Potentiation (%)” value is on record as 17% in the data set on emigrating leukocytes (2.5 mg/rat into the CMC pouch) and 87% in the data set with emigrating leukocytes (5 mg/rat into the CMC pouch). The results for the “Inhibition (%)” value in the data set on Adjuvant Arthritis (25 mg/kg orally daily) and in the data set with Adjuvant Arthritis (100 mg/kg orally daily) were 5% and 31%, respectively. Also, the “RFC in Thymus” value in data set [1] (setting [5]) is 248. The “PFC in Spleen” value in data set [2] (30 mg/kg orally, *p < 0.05) is on record as 81. The “RFC in Spleen” value in data set [3] (30 mg/kg orally, **p < 0.01) turned out to be 108.
